Test results as given in paper doi:10.1101/306035v1 (biorxiv, 2018).
pKd: −log10 of the molar value.

Target: T1, DcaPTrunc (Acinetobacter baumannii, UniProt A0A0D5YFT0)
T1 sequence (A0A0D5YFT0 89-434): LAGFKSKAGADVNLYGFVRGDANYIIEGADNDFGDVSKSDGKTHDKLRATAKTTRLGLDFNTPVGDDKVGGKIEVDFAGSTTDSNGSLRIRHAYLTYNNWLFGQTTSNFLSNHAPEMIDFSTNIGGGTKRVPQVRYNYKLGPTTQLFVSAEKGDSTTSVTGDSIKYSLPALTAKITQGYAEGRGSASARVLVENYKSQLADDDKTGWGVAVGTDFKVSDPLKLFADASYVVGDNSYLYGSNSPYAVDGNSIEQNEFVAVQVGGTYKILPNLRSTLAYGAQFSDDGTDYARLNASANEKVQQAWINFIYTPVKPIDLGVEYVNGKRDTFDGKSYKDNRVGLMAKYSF
Test: biochemical

O=C(O)c1ccccc1C(=O)O [o-phthalic acid]
pKd: ~2.05
